Series [1] can be described thus: Effect on iron absorption in vivo of maltol as a diet supplement (liver iron). Set-up: species or system Male Wistar rats. As to conditions: for Liver Fe: rats fed maltol 50 mg/kg by gavage on alternate days, individual animals 1-6; for Liver Fe, MEAN: rats fed maltol 50 mg/kg. On the procedure: Male Wistar rats, housed in polyethylene cages, initially weighing 70-80 grams were given a normal powder diet and water ad libitum for two weeks prior to treatment with maltol by gavage. Provided the animal was showing normal growth, treatment by gavage with maltol at 50 mg/kg was commenced and continued on alternate days for a further two weeks. At the end of the experimental period the animals were sacrificed, the livers were excised, mass determined and the sub cellular fraction assayed for iron be electrothermal atomic absorption. […]. The iron content of the diet is 240 mg/kg of food and the daily consumption of the rats is approximately 20 g which contains 4.8 mg as iron. The content of maltol in the diet is approximately 10 mg which is a ratio of iron/maltol of 4.8/10.0 which is approximately a 1:1 molar ratio (actual 1:1 is 4.5/10/0).
The liver content and concentration of iron in the sub cellular fraction were compared with the control group fed the same diet over the month, but without maltol.

Series [2] in a line: In vivo test in man: ICPOES analysis for iron in serum. The conditions noted are these: for Iron concentration [Fe] (s.d.) in serum: man, with 10% excess maltol. From the text:
A composition of the invention comprising ferric maltol chloride ([FeM]^++Cl2−) ie. a 1:1 iron:hydroxypyrone complex together with a small (10%) excess of moltol (uncomplexed hydroxypyrone).

Series [3] can be described thus: In vivo test in man: plasma iron concentration by ICP after oral ferric monomaltol citrate. As to conditions: time 0 mins (resting value). As for the experimental part:
A composition of the invention comprising ferric monomaltol citrate with 30 mg as iron in 5 ml of water was administered orally to a person who had fasted for 24 hours. The plasma iron concentration in the subject's bloodstream was determined by the ICP [inductively coupled plasma, (Machine Jobin Yvonne Modol 20)] technique which determines the emission spectra of elements by optical spectrometry when samples are subjected to a very hot flame. The technique is very sensitive and the accuracy and precision is less than +or −1%.

Series [4] is described as follows: Tests to determine optimum pH and molar ratios of iron:hydroxypyrone for synthesis of the 1:1 complex. The series is classed as physicochemical. As to conditions: pH 1-2. On the procedure:
Further tests to determine the optimum pH and molar ratios of iron:hydroxypyrone for synthesis of the 1:1 complex were carried out using iron:hydroxypyrone (maltol) ratios of 1:1.1, 1:1.15 and 1:1.25. For each ratio concentrations of 1M, 0.1M and 0.01M were tested. In the tests iron was used in an aqueous form.

Series [5] can be described thus: Solubility of iron complexes and mixtures (description). It counts as physicochemical. The conditions noted are these: for solubility relative to the 1:3 iron/hydroxypyrone molar ratio complex: 1:1 complexes.
The nature of series [6]: pH and stability of solutions of the complexes (description). It counts as physicochemical. The conditions noted are these: for stability in solution: buffered pH of 7.
Series [7] concerns red blood cell. As to the kind of experiment: Initial toxicity studies: red blood cell haemolysis. The series is classed as cell-based. As to conditions: liquid formulations.
A short description of series [8]: Stability of the 1:1 molar ratio complex of iron and hydroxypyrone (visual precipitates, UV-V spectroscopy). The series is classed as physicochemical. As for the experimental part: Various solutions of iron (III),and hydroxypyrone (ethylmaltol) were buffered to pH 7 with 50 mM morpholine propane sulphonate (MOPS) 50 mM, to pH 5 with sodium acetate (50 mM) and to pH 3 with glycine (50 mM). Iron III nitrate 9 H2O was used as a source of iron.

SMILES strings stand for the structures. “And” between values parts separate entries of the source, which are not always exact repeats. Equal entries are not always repeated.

For the compound `Cc1occc(=O)c1O` [Maltol, 3-hydroxy-2-methyl-4-pyrone], the “Liver Fe” value in series [1] (iron concentration, µg per g liver) is 118.8 µg/g and 113.2 µg/g and 87.3 µg/g and 165.8 µg/g and 149.2 µg/g and 123.4 µg/g; in series [1] (total iron, mg per liver), 1.44 mg/liver and 1.14 mg/liver and 0.86 mg/liver and 1.87 mg/liver and 1.69 mg/liver and 1.25 mg/liver. For the same compound, the “Liver Fe, MEAN” value in series [1] (mean of 6 animals (control 1.06 ± 0.25)) worked out at 1.38 ± 0.37 mg/liver; in series [1] (mean of 6 animals (control 120.1 ± 30.2)), 126.3 ± 27.7 µg/g. Moreover, in series [1] (rats, maltol 50 mg/kg by gavage), the “change in liver iron content versus control” value is recorded as “small but significant increase”.
Consider `Cc1occc(=O)c1[O-].[Cl-].[Cl-].[Fe+3]` [ferric maltol chloride], for which the “Iron concentration [Fe] (s.d.) in serum” value in series [2] (time 0 min, n = 2) is 1188.81 (17.57) ppb; in series [2] (time 20 min, n = 2) it was 1387.66 (63.08) ppb; in series [2] (time 60 min, n = 2), 1600.62 (115.83) ppb; in series [2] (time 120 min, n = 1), 1312.74 (0) (n = 1) ppb.
`Cc1occc(=O)c1[O-].O=C([O-])CC(O)(CC(=O)O)C(=O)[O-].[Fe+3]` [ferric monomaltol citrate]: the “iron conc (plasma)” value in series [3] (30 mg as iron in 5 ml water, fasted 24 hours) is 1.2 µg/mL; in series [3] (30 mg as iron), 21.8 µmol/L.
In the case of `Cc1occc(=O)c1[O-].[Fe+3]` [ferric monomaltol], the “proportion of the solution that comprises the 1:1 complex” value in series [4] is on record as around 80%. Besides, the iron uptake result in series [2] (in vivo, po) is reported as “taken up well”. Also, the “solubility relative to the 1:3 iron/hydroxypyrone molar ratio complex” value in series [5] was “approximately ten times more soluble”. In addition, the solubility result in series [5] (pH 1-2) is listed as “very soluble”. Further, the stability in solution result in series [6] is “stability for extended periods (for example six months)”. Besides, the “natural pH” value in series [6] (solution) is recorded as “approximately 2.8”. For the same compound, in series [7], the “red blood cell haemolysis and breakdown” value is “do not cause red blood cell haemolysis and red blood cell breakdown”.
`O=S(=O)([O-])[O-].[Fe+2]` [ferrous sulphate, reference compound]: the stability in solution result in series [6] is reported as “precipitate very rapidly”.
On to `CCc1occc(=O)c1[O-].[Fe+3]` [iron ethyl maltol], for which the stability of solutions result in series [8] (0.1M, 0.01M and 0.001M, pH 3, 5 and 7) is “stable for up to two months”. Besides, the “formation of ferric triethylmaltol (1:3 complex)” value in series [8] (wide concentration range, up to pH 7) is “no ferric triethylmaltol is found even at pH 7”. In series [5], the “solubility relative to the 1:3 iron/hydroxypyrone molar ratio complex” value is on record as “approximately ten times more soluble”.

For the origin of these results see US6635631B2, “Iron compounds, compositions, methods of making the same and uses thereof” (Vitra Pharmaceuticals, Ltd., priority 1995, dated 2003).
